From PubChem BioAssay (NCI)
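Protocol summary: plate cells (96-well), add compound at 5 concentrations, incubate 48 h, interpolate endpoints linearly. The concentration for 50% growth inhibition is given as GI50. At the TGI there is no net growth.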

Experiments:
Assay in all cases: NCI tumour cell line growth inhibition, 48 h
UACC-257 melanoma = test system: UACC-257 melanoma
SK-MEL-28 melanoma = test system: SK-MEL-28 melanoma
SF-539 CNS = test system: SF-539 CNS
LOX IMVI melanoma = test system: LOX IMVI melanoma
U251 CNS = test system: U251 CNS
NCI-H226 lung = test system: NCI-H226 lung
OVCAR-3 ovarian = test system: OVCAR-3 ovarian
NCI-H23 lung = test system: NCI-H23 lung
SK-OV-3 ovarian = test system: SK-OV-3 ovarian
TK-10 renal = test system: TK-10 renal

Row | Compound | GI50 (UACC-257 melanoma) | TGI (UACC-257 melanoma) | GI50 (SK-MEL-28 melanoma) | TGI (SK-MEL-28 melanoma) | GI50 (SF-539 CNS) | TGI (SF-539 CNS) | GI50 (LOX IMVI melanoma) | TGI (LOX IMVI melanoma) | GI50 (U251 CNS) | TGI (U251 CNS) | GI50 (NCI-H226 lung) | TGI (NCI-H226 lung) | GI50 (OVCAR-3 ovarian) | TGI (OVCAR-3 ovarian) | GI50 (NCI-H23 lung) | TGI (NCI-H23 lung) | GI50 (SK-OV-3 ovarian) | TGI (SK-OV-3 ovarian) | GI50 (TK-10 renal) | TGI (TK-10 renal)
1 | COc1cc(-c2cn(-c3ccc(Cl)cc3)c(=O)n2-c2ccccc2)cc(OC)c1OC | > 82.6 µM | > 100 µM | 56.4 µM | > 100 µM | 61.5 µM | > 100 µM | 46.2 µM | > 100 µM | 33.7 µM | > 100 µM | 82.1 µM | > 100 µM | > 100 µM | > 100 µM | > 100 µM | > 100 µM | 74.9 µM | > 100 µM | > 100 µM | > 100 µM
2 | CC1=C(C(=O)Nc2cc(F)c(F)cc2F)C(c2cccc([N+](=O)[O-])c2)C(C(=O)Nc2ccccc2C(F)(F)F)=C(C)N1 (stereo not given) |  | 59.3 µM |  | 62.2 µM |  | 53.1 µM |  | 39.4 µM |  | 53.1 µM |  | 74.7 µM |  | 41.9 µM |  | 46.5 µM |  | 88.9 µM |  | 71.5 µM
3 | Fc1cccc(C=NC23CC4CC(CC(C4)C2)C3)c1 |  | > 100 µM |  | > 100 µM |  | > 100 µM |  | > 100 µM |  | > 100 µM |  | > 100 µM |  | > 100 µM |  | > 100 µM |  | > 100 µM |  | > 100 µM
